Test results: patent US6569638B1, “Method for screening compounds for the treatment of neoplasia” (Cell Pathways, Inc, priority 2000, dated 2003)

Tests used:
PDE peak B = test: Competitive binding with cGMP
PDE 5 (i.e., peak A) = PDE 5 (i.e., peak A) (Homo sapiens, UniProt O76074); test: Competitive binding with cGMP; conditions: PDE 5 (peak A)
[1] = biological target: T1, GST-cGB-PDE5 fusion protein (cGMP binding sites of human PDE5A) (Homo sapiens, UniProt O76074); test: cGMP binding assay (3H-cGMP competition); conditions: 3H-cGMP 2 μM, 22° C., 1 hour
T1 construct: made in house; host or cells: E. coli BL21 (DE3)

SEK1 in SW480 cells = test: SEK1 phosphorylation by Western blot (anti-phospho-SEK1 Thr223); format: cell-based, human; conditions: Compound A 1 μM
Protocol: FIG. 3A: SW480 cells were treated with Compound A (1 μM), collected at the indicated time points, and cell lysates assayed for SEK1 activation by Western blotting with anti-phospho-SEK1 (Thr223) antibody. Fold increase in phosphorylation was measured by densitometry. The experiment was repeated three times with similar results.
To further characterize the signal transduction pathway involved in the above-described JNK1 activation, we tested whether SEK1, the protein kinase immediately upstream of JNK1, was also activated by a SAAND. Activation of SEK1 occurs through phosphorylation of two residues of this protein, Ser219 and Thr223, by the protein kinase MEKK1. SW480 cells were treated with Compound A (1 μM) for various times, up to 6 hours, and extracts were analyzed by Western blot analysis using a phospho-Thr223-specific SEK1 antibody. The treatment with Compound A induced increased phosphorylation of SEK1, within 15-30 minutes, without changing the total cellular level of the endogenous SEK1 protein (see, FIG. 3A). By 1 hour there was a 9-fold induction, and this effect persisted for at least 6 hours (FIG. 3A).

[2] = tested on: JNK1 in SW480 colon cancer cells; test: JNK1 immunoprecipitation in vitro kinase assay with GST-c-Jun(1-79); format: cell-based, human; conditions: SW480 cells
Protocol: The cells were lysed, JNK1 immunoprecipitated with an anti-JNK1 antibody, and the immunoprecipitate (“IP”) assayed for in vitro kinase activity with GST-c-Jun(1-79) as the substrate. The experiments were repeated three times with similar results. Fold activation was measured using a Phosphor Imager.
FIG. 1B: SW480 cells were treated with Compound A (1 μM) for the indicated time periods and in vitro JNK1 kinase activity was determined as described above.
FIG. 2A SW480 cells were treated with either DMSO (−) or Compound A, 0.1 μM; dbcGMP, 500 μM; YC-1, 50 μM; MY-5445, 50 μM; dipyridamole, 10 μM or dbcAMP, 500 μM for one hour. The cells were lysed, JNK1 immunoprecipitated, and the IP assayed for in vitro kinase activity as described in FIG. 1A.
FIG. 2B SW480 cells were pre-treated with either DMSO, KT5720 (2 μM) or Rp-8-pCPT-cGMPS (2 μM) for 2 hours and then treated with Compound B (0, 1 or 10 μM) for one hour. The cells were lysed and assayed for JNK1 activation in the IP as described above.
These concentrations were chosen since they provided optimal induction of apoptosis. Endogenous JNK1 was immunoprecipitated with anti-JNK1 antibody and in vitro kinase assays were performed with GST-c-Jun(1-79) as the substrate. […]
However, the precise role of PKG in signal transduction pathways is not known. […] As a control, KT5720 was used as a protein kinase A (“PKA”)-specific inhibitor. SW480 cells were treated with either DMSO, KT5720 (2 μM) or Rp-8-pCPT-cGMPS (2 μM) for 2 hours and then treated with either DMSO or Compound B (1 or 10 μM) for one hour. Cell extracts were collected and assayed for JNK1 activation.

MEKK1 in SW480 cells = test: MEKK1 cleavage and activation (Western blot, autophosphorylation); format: cell-based, human
Protocol: FIG. 3B: SW480 cells were treated with Compound A (1 μM) and collected after either 1 or 2 days and the cell lysates were assayed for MEKK1 cleavage by Western blotting with anti-MEKK1 antibody. Minus (−) indicates DMSO treated control cells.
We then examined the effect of a SAAND on MEKK1, a protein kinase immediately upstream of SEK1. […] Previous studies indicate that MEKK1 is cleaved during activation by caspases (19). […] It is not clear, however, whether cGMP-activated PKG directly activates MEKK1 or whether the cleavage and activation of MEKK1 is an indirect effect of the process of apoptosis.

caspase-3 in SW480 cells = test: Caspase-3 activity with Ac-DEVD-AFC substrate; format: cell-based, human; conditions: 24 hours, sulindac sulfide 200 μM, exisulind 600 μM, Compound A 1 μM, Compound B 10 μM
Protocol: The cells were lysed and the extracts assayed for caspase-3 activity using Ac-DEVD-AFC as the substrate, in the presence or absence of the caspase-3 inhibitor Ac-DEVD-CHO. Caspase-3 activity was calculated by subtracting the AFC fluorescence (excitation; 400 nm, emission; 505 nm) in the presence of Ac-DEVD-CHO from the AFC fluorescence in the absence of Ac-DEVD-CHO.
Protein extracts were then prepared and caspase-3 activity was measured with Ac-DEVD-AFC as the substrate, in the presence or absence of the caspase-3 inhibitor Ac-DEVD-CHO. […] Similar findings were obtained with HCT116 and HT29 cells (data not shown).

PARP in SW480 cells = test: PARP cleavage by Western blot; format: cell-based, human; conditions: SW480 cells, Compound A 1 μM, 2 days
Protocol: SW480 cells were pre-treated with either DMSO (−) or Rp-8-pCPT-cGMPS (2 μM) for 2 hours and then treated with either DMSO (−) or Compound A (1 μM). Both the floating and attached cells were collected after 2 days, and the cell lysates were assayed for PARP cleavage by Western blotting with anti-PARP antibody. Fold increase in PARP cleavage was measured by densitometry of the 85 kD fragment.
Finally, we investigated whether activation of the PKG pathway is required for the induction of apoptosis by SAANDs. SW480 cells were treated with either DMSO or the PKG inhibitor Rp-8-pCPT-cGMPS (2 μM) for 2 hours and then the cells were treated with either DMSO or Compound A (1 μM) for 2 days. Both the floating and attached cells were collected, and the cell lysates were assayed for poly (ADP-ribose) polymerase (PARP) cleavage by Western blotting with an anti-PARP antibody. PARP is a 116 kD nuclear enzyme that converts NAD to nicotinamide and protein-linked ADP-ribose polymers, which are important for DNA repair and genomic maintenance. In cells that are undergoing apoptosis the 116 kD PARP protein is cleaved by caspase-3 into 85 and 25 kD fragments, thus resulting in loss of normal PARP function. This inactivation of PARP apparently prevents depletion of cellular levels of NAD and ATP, which are thought to be required for later events in apoptosis.

- competitive binding with cGMP (PDE peak B): competitively (with cGMP) binds
- competitive binding with cGMP (PDE 5 (i.e., peak A)): competitively (with cGMP) bind
Structure (SMILES): COc1cc(/C=C2/C(C)=C(CC(=O)NCc3ccccc3)c3cc(F)ccc32)cc(OC)c1OC [Compound A, (Z)-5-fluoro-2-methyl-(3,4,5-trimethyl-oxybenzylidene)-3-(N-benzyl)-indenylacetamide]
- competition with cGMP for the cGMP binding sites of GST-cGB-PDE5 [1]: None of the PDE5 inhibitors showed any competition with cGMP
- persistence of SEK1 phosphorylation (SEK1 in SW480 cells): at least 6 hours
- time to increased phosphorylation of SEK1 (SEK1 in SW480 cells): 15 to 30 min
- induction of SEK1 phosphorylation (SEK1 in SW480 cells; by 1 hour): 9 fold
- duration of sustained JNK1 activation ([2]; Compound A 1 μM, time course): at least 24 hours
- JNK1 activation ([2]; one hour, sulindac sulfide 50-500 μM, exisulind 100-600 μM, Compound A 0.1-5 μM, Compound B 1-50 μM): activated JNK1
- MEKK1 activity (autophosphorylation and phosphorylation of GST-SEK1) (MEKK1 in SW480 cells): strong and transient activation of MEKK1 activity
- MEKK1 cleavage (MEKK1 in SW480 cells; Compound A 1 μM, one or two days): cleavage of this protein
- caspase-3 activation (caspase-3 in SW480 cells): led to activation of caspase-3
- PARP cleavage (PARP in SW480 cells): induced PARP cleavage
